The subject of data set [1] is metallothionein-II mRNA in Saos-2 cells. Nature of the data set: Regulation of metallothionein-II mRNA in Saos-2 cells. The format is cell-based. As to conditions: Homo sapiens.

The structures appear in SMILES notation.

The term melting point denotes the temperature, or range, at which the solid turns liquid. In general, fold induction refers to the ratio of treated to control signal.

For the compound `COCc1cc(O)cc2cc(-c3ccc(O)cc3)oc12` [Example 6, 2-(4-Hydroxy-phenyl)-7-methoxymethyl-benzofuran-5-ol], the melting point fell in the range of 186 to 188 °C.

For the compound `O=C(c1cc(O)cc2cc(-c3ccc(O)cc3)oc12)C(F)(F)F` [Example 68, 2,2,2-Trifluoro-1-[5-hydroxy-2-(4-hydroxy-phenyl)-benzofuran-7-yl]-ethanone], the melting point was 215 to 216 °C.

For `Oc1ccc(-c2cc3c(Cl)c(O)ccc3o2)cc1` [Example 131, 4-Chloro-2-(4-hydroxy-phenyl)-benzofuran-5-ol], the melting point was in the range of 210 to 214 °C.

`CC(C#N)c1cc(O)cc2cc(-c3ccc(O)cc3)oc12` (stereo not shown) [Example 21, 2-[5-Hydroxy-2-(4-hydroxy-phenyl)-benzofuran-7-yl]-propionitrile]: the melting point was 183 to 185 °C.

On to `Oc1ccc(-c2cc3cc(O)cc(-c4nnco4)c3o2)cc1` [Example 138, 2-(4-Hydroxy-phenyl)7-[1,3,4]oxadiazol-2-yl-benzofuran-5-ol], for which the melting point was in the range of 260 to 266 °C.

In the case of `Oc1ccc(-c2cc3cc(O)ccc3o2)c(-c2ccccc2)c1` [Example 103, 2-(5-Hydroxy-biphenyl-2-yl)-benzofuran-5-ol], the fold induction at 1 µM in data set [1] amounted to 9.

Compound `Oc1ccc2oc(-c3cc(OCc4ccccc4)c(O)cc3-c3ccccc3)cc2c1` [Example 104, 2-(4-Benzyloxy-5-hydroxy-biphenyl-2-yl)-benzofuran-5-ol] returned a melting point of 186 to 187 °C.

For the compound `CCOCc1cc(O)cc2cc(-c3ccc(O)cc3)oc12` [Example 7, 7-Ethoxymethyl-2-(4-hydroxy-phenyl)-benzofuran-5-ol], the melting point was 166 to 168 °C.

On to `COc1cc(O)c(C#N)c2cc(-c3ccc(O)c(F)c3)oc12` [Example 73a, 2-(3-Fluoro-4-hydroxy-phenyl)-5-hydroxy 7-methoxy-benzofuran-4-carbonitrile], for which the melting point fell in the range of 265 to 267 °C.

Compound `CC(=O)c1c(-c2ccc(O)cc2)oc2ccc(O)cc12` [Example 110, 1-[5-Hydroxy-2-(4-hydroxy-phenyl)-benzofuran-3-yl]-ethanone] returned a melting point of 243 to 251 °C.

`Oc1ccc(-c2cc3cc(O)cc(CC(F)(F)F)c3o2)cc1` [Example 141, 2-(4-Hydroxy-phenyl)-7-(2,2,2-trifluoro-ethyl)-benzofuran-5-ol] registered a melting point of 210 to 213 °C.

`CC(C)OCc1cc(O)cc2cc(-c3ccc(O)cc3)oc12` [Example 8, 2-(4-Hydroxy-phenyl)-7-isopropoxymethyl benzofuran-5-ol] returned a melting point of 195 to 197 °C.

For `Oc1ccc(-c2cc3cc(F)ccc3o2)cc1` [Example 91, 4-(5-Fluoro-benzofuran-2-yl)-phenol], the melting point is 202 to 204 °C.

Compound `CC(C)OC(=O)c1cc(O)cc2cc(-c3ccc(O)cc3)oc12` [Example 36, 5-Hydroxy-2(4hydroxy-phenyl)-benzofuran-7-carboxylic acid Isopropyl ester] yielded a melting point of over 250 °C.

The compound `Oc1ccc(-c2cc3cc(O)cc(Cn4ccnc4)c3o2)cc1` [Example 16, 2-(4-Hydroxy-phenyl)-7-imidazol-1-ylmethyl-benzofuran-5-ol] yielded a melting point of 269 to 271 °C.

As to `Oc1ccc2oc(-c3ccc(O)c(F)c3)cc2c1` [Example 126, 2-(3-Fluoro-4-hydroxy-phenyl)-benzofuran-5-ol], the melting point was in the range of 218 to 222 °C.

As for `COC(=O)c1cc(O)cc2cc(-c3ccc(O)cc3)oc12` [Example 38, 5-Hydroxy-2-(4-hydroxy-phenyl)-benzofuran-7-carboxylic acid methyl ester], the melting point lay within 236 to 238 °C.

In turn, `C=Cc1cc(O)cc2cc(-c3ccc(O)cc3)oc12` [Example 67, 2-(4-Hydroxy-phenyl)-7-vinyl-benzofuran-5-ol] yielded a melting point of 182 to 184 °C.

In the case of `Oc1ccc(-c2cc3cc(F)cc(F)c3o2)cc1` [Example 94, 4-(5,7-Difluoro-benzofuran-2-yl)-phenol], the melting point is 152 to 154 °C.

In turn, `CC(C)(C)c1ccc2oc(-c3ccc(O)cc3)cc2c1` [Example 92, 4-(5-tert-Butyl-benzofuran-2-yl)-phenol] returned a melting point of 172 to 174 °C.

In turn, `Nc1cc(O)cc2cc(-c3ccc(O)cc3)oc12` [Example 100, 7-Amino-2-(4-hydroxy-phenyl)-benzofuran-5-ol] gave a melting point of 251 to 254 °C.

In turn, `Oc1ccc(-c2cc3cc(Br)cc(Br)c3o2)cc1` [Example 95, 4-(5,7-Dibromo-benzofuran-2-yl)-phenol] returned a melting point of 203 to 205 °C.

Turning to `CCOC(=O)c1cc(O)cc2cc(-c3ccc(O)cc3)oc12` [Example 39, 5-Hydroxy-2-(4-hydroxy-phenyl)-benzofuran-7-carboxylic acid ethyl ester], the melting point lay within 221 to 223 °C.

As to `N#CSCc1cc(O)cc2cc(-c3ccc(O)cc3)oc12` [Example 15, 2-(4-Hydroxy-phenyl)-7-thiocyanatomethyl-benzofuran-5-ol], the melting point fell in the range of 190 to 192 °C.

On to `Oc1ccc(-c2cc(O)ccc2-c2cc3cc(O)ccc3o2)cc1` [Example 105, 6-(5-Hydroxy-benzofuran-2-yl)-biphenyl-3,4′-diol], for which the melting point lay in the range of 238 to 239 °C.

As to `CCCOC(=O)c1cc(O)cc2cc(-c3ccc(O)cc3)oc12` [Example 37, 5-Hydroxy-2-(4-hydroxy-phenyl)-benzofuran-7-carboxylic acid propyl ester], the melting point fell in the range of 220 to 222 °C.

For the compound `Oc1ccc(-c2cc3c(Br)c(O)ccc3o2)cc1` [Example 130, 4-Bromo-2-(4-hydroxy-phenyl)-benzofuran-5-ol], the melting point lay within 196 to 198 °C.

As for `NC(=O)C=Cc1cc(O)cc2cc(-c3ccc(O)cc3)oc12` [Example 61, 3-[5-Hydroxy-2-(4-hydroxyphenyl)-benzofuran-7-yl]-acrylamide], the melting point was 275 °C (dec.).

For the compound `CON(C)C(=O)c1cc(O)cc2cc(-c3ccc(O)cc3)oc12` [Example 119, 5-Hydroxy-2-(4-hydroxy-phenyl)-benzofuran-7-carboxylic acid methoxy-methyl-amide], the melting point lay within 125 to 127 °C.

In the case of `CC(=NO)c1c(-c2ccc(O)cc2)oc2ccc(O)cc12` [Example 111, 1-[5-Hydroxy-2-(4-hydroxy-phenyl)-benzofuran-3-yl]-ethanone oxime], the melting point was 217 °C.

In turn, `CSCc1cc(O)cc2cc(-c3ccc(O)cc3)oc12` [Example 10, 2-(4-Hydroxy-phenyl)-7-methylsulfanylmethyl-benzofuran-5-ol] registered a melting point of 188 to 190 °C.

Regarding `Oc1ccc(-c2cc3cc(O)cc(CSc4ccccc4)c3o2)cc1` [Example 12, 2-(4-Hydroxy-phenyl)-7-phenylsulfanylmethyl-benzofuran-5-ol], the melting point is 175 to 177 °C.

On to `CC(C)(C#N)c1cc(O)cc2cc(-c3ccc(O)cc3)oc12` [Example 22, 2-[5-Hydroxy-2-(4-hydroxy-phenyl)-benzofuran-7-yl]-2-methyl-propionitrile], for which the melting point came out at 284 °C.

For the compound `COC(=O)CCc1cc(O)cc2cc(-c3ccc(O)cc3)oc12` [Example 60, 3-[5-Hydroxy-2-(4-hydroxy-phenyl)-benzofuran-7-yl]-propionic acid methyl ester], the melting point lay in the range of 167 to 170 °C.

These data come from patent US7022733B2, “Substituted 2-phenyl benzofurans as estrogenic agents” (Wyeth, priority 2001, dated 2006).
